Data on 23 compounds can be found in ChEMBL document CHEMBL4382262, “Structurally Simple, Readily Available Peptidomimetic 1-Benzyl-5-methyl-4-( n-octylamino)pyrimidin-2(1 H)-one Exhibited Efficient Cardioprotection in a Myocardial Ischemia (MI) Mouse Model” (J Med Chem, 2018).

In assay [1] the target is T1, Toll-like receptor 4 (Rattus norvegicus) (UniProt Q9QX05).
T1 sequence (whole entry): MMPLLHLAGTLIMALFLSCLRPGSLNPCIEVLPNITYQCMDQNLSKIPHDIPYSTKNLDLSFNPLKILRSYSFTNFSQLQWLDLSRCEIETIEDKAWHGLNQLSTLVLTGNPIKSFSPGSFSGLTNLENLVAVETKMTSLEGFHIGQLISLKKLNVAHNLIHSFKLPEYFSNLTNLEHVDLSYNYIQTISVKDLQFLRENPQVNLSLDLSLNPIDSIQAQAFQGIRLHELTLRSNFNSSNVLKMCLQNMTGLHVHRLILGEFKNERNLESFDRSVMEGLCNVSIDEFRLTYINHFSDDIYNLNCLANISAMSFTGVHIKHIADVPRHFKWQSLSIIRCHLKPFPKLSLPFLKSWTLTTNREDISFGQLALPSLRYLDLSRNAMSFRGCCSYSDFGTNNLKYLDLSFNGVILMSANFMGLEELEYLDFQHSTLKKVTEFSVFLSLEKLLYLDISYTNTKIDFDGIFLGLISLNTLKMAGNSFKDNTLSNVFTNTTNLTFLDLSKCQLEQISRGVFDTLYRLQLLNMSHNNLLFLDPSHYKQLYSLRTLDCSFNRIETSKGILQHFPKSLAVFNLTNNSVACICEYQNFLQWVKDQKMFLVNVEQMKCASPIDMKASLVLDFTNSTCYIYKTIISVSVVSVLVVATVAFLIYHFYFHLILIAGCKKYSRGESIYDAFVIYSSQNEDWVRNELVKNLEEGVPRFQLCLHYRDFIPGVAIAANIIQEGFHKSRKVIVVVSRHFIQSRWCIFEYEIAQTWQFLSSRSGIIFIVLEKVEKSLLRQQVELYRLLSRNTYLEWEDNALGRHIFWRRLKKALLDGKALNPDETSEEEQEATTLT
Nature of the assay: Inhibition of TLR4 in Sprague-Dawley rat cardiomyocytes assessed as reduction in hypoxia-induced LDH release preincubated for 1 hr followed by hypoxia for 3 hrs by NADH detection based colorimetric analysis. The format is cell-based. (Release of lactate dehydrogenase indicates damage to the cell membrane.)

Assay [2] concerns the target T1, Toll-like receptor 4 (Rattus norvegicus). Nature of the assay: Inhibition of TLR4 in Sprague-Dawley rat cardiomyocytes assessed as reduction in hypoxia-induced creatine kinase levels preincubated for 1 hr followed by hypoxia for 3 hrs by NADP reduction based colorimetric analysis. The format is cell-based.
The target is the same in assay [3]. Nature of the assay: Inhibition of TLR4 in Sprague-Dawley rat cardiomyocytes assessed as reduction in hypoxia-induced LDH release at 20 uM preincubated for 1 hr followed by hypoxia for 3 hrs by NADH detection based colorimetric analysis. It counts as cell-based.
Assay [4] has the same target. As to the kind of experiment: Inhibition of TLR4 in Sprague-Dawley rat cardiomyocytes assessed as reduction in hypoxia-induced creatine kinase levels at 20 uM preincubated for 1 hr followed by hypoxia for 3 hrs by NADP reduction based colorimetric analysis. It counts as cell-based.
In assay [5] the test system is Macrophage. Nature of the assay: Antiinflammatory activity in human macrophages assessed reduction in LPS-induced TLR4 expression at 10 uM pretreated for 30 mins followed by LPS stimulation for 4 hrs by FACS analysis. It counts as functional, cell-based. Background: A flow cytometer gives signals particle by particle.
Assay [6] relates to Macrophage. As to the kind of experiment: Antiinflammatory activity in human macrophages assessed reduction in TLR4 expression at 10 uM after 4 hrs by FACS analysis. It counts as functional, cell-based.
Assay [7] has as its target T1, Toll-like receptor 4 (Rattus norvegicus). Nature of the assay: Inhibition of TLR4 in Sprague-Dawley rat cardiomyocytes assessed as reduction in hypoxia-induced LDH release at 10 uM preincubated for 1 hr followed by hypoxia for 3 hrs by NADH detection based colorimetric analysis. The format is cell-based.
Assay [8] has the same target. As to the kind of experiment: Inhibition of TLR4 in Sprague-Dawley rat cardiomyocytes assessed as reduction in hypoxia-induced creatine kinase levels at 10 uM preincubated for 1 hr followed by hypoxia for 3 hrs by NADP reduction based colorimetric analysis. It counts as cell-based.
Assay [9] shares this target. As to the kind of experiment: Inhibition of TLR4 in Sprague-Dawley rat cardiomyocytes assessed as reduction in hypoxia-induced creatine kinase levels at 10 to 20 uM preincubated for 1 hr followed by hypoxia for 3 hrs by NADP reduction based colorimetric analysis. The format is cell-based.
For assay [10] the target is unchanged. Nature of the assay: Inhibition of TLR4 in Sprague-Dawley rat cardiomyocytes assessed as reduction in hypoxia-induced LDH release at 10 to 20 uM preincubated for 1 hr followed by hypoxia for 3 hrs by NADH detection based colorimetric analysis. It counts as cell-based.
For assay [11] the target is unchanged. As to the kind of experiment: Inhibition of TLR4 in Sprague-Dawley rat cardiomyocytes assessed as reduction in LPS-induced creatine kinase levels at 10 to 20 uM preincubated for 1 hr followed by LPS stimulation for 5 hrs by NADH detection based colorimetric analysis. The format is cell-based.
The target is the same in assay [12]. As to the kind of experiment: Inhibition of TLR4 in Sprague-Dawley rat cardiomyocytes assessed as reduction in LPS-induced LDH release at 10 to 20 uM preincubated for 1 hr followed by LPS stimulation for 5 hrs by NADH detection based colorimetric analysis. It counts as cell-based.
Assay [13] has the same target. Nature of the assay: Inhibition of TLR4 in Sprague Dawley rat cardiomyocytes assessed as reduction in LPS induced LDH levels by measuring NADH levels at 10 to 20 uM preincubated for 1 hr followed by induction of hypoxia measured after 5 hrs by colorimetric analysis. The format is cell-based.
Assay [14] is described as follows: Reduction in hypoxia-induced TLR4 mRNA expression in Sprague-Dawley rat cardiomyocytes at 20 uM preincubated for 1 hr followed by hypoxia for 3 hrs by RT-qPCR analysis relative to untreated control. The format is functional, Cardiac muscle cell. A general note: Real-time PCR tracks product formation cycle by cycle.
The target of assay [15] is T1, Toll-like receptor 4 (Rattus norvegicus). As to the kind of experiment: Inhibition of TLR4 in Sprague-Dawley rat cardiomyocytes assessed as reduction in hypoxia-induced IL-1beta mRNA expression at 20 uM preincubated for 1 hr followed by hypoxia for 3 hrs by RT-qPCR analysis. The format is cell-based.
For assay [16] the target is unchanged. Nature of the assay: Inhibition of TLR4 in Sprague-Dawley rat cardiomyocytes assessed as reduction in hypoxia-induced creatine kinase levels at 1 uM preincubated for 1 hr followed by hypoxia for 3 hrs by NADP reduction based colorimetric analysis. The format is cell-based.
Assay [17] has the same target. As to the kind of experiment: Inhibition of TLR4 in Sprague-Dawley rat cardiomyocytes assessed as reduction in hypoxia-induced LDH release at 1 uM preincubated for 1 hr followed by hypoxia for 3 hrs by NADH detection based colorimetric analysis. It counts as cell-based.

Calls of active or inactive are those of the source. The rule behind the calls is not given here. Where a SMILES comes first, the peptide text is derived from it.

On to `CSCC[C@H](NC(=O)[C@H](CCC(=O)O)NC(C)=O)C(=O)N1CCC[C@H]1C(=O)NC(CS)C(N)=O` (single isomer, unassigned), for which the inhibition result in assay [1] and in [2] was “inactive” each time.

For `CCOc1nc(=O)n(Cc2ccc([N+](=O)[O-])cc2)cc1C`, the inhibition result in [1] and in assay [2] was “inactive” in each case.

As for `CCCCCCCCCCNc1nc(=O)n(Cc2ccccc2)cc1C`, the inhibition entry in [1] and in assay [2] was “inactive” each time.

For the compound `CSCC[C@H](NC(=O)[C@H](CCC(=O)O)NC(=O)[C@H](C)NC(C)=O)C(=O)N1CCC[C@H]1C(N)=O` (Ac-AEMP-NH2), the inhibition entry in [1] and in assay [2] was “Dose-dependent effect” throughout.

With H-IVFAEMPCG-OH, the fold change (FC) was 1.8 in [3] and 5.5 in assay [4]. The result in the assay on Macrophage [5] and in the assay on Macrophage [6] was Active. The inhibition result in assay [7] and in assay [8] was “inactive” throughout.

As to `Cc1cn(Cc2ccccc2)c(=O)nc1NCCCN(C)C`, the inhibition result in assay [1] and in assay [2] was “inactive” each time.

Regarding `CSCC[C@H](NC(C)=O)C(=O)N1CCC[C@H]1C(=O)NC(CS)C(=O)NCC(N)=O` (single isomer, unassigned), the inhibition entry in assay [1] and in [2] was “inactive” throughout.

`CCOc1ncc(C)c(OCC)n1`: the inhibition result in assay [1] and in assay [2] was “inactive” each time.

For `CCCCCCCCNc1nc(=O)n(Cc2ccc([N+](=O)[O-])cc2)cc1C`, the inhibition entry in assay [1] and in assay [2] was “inactive” in each case.

With `CSCC[C@H](NC(=O)[C@H](CCC(=O)O)NC(=O)[C@H](C)NC(=O)[C@H](Cc1ccccc1)NC(C)=O)C(N)=O` (Ac-FAEM-NH2), the inhibition result in assay [1] and in assay [2] was “Dose-dependent effect” in each case. Further, the inhibition result in assay [9] and in assay [10] was “Active” each time.

Regarding `CCOc1nc(=O)n(Cc2ccc(C(F)(F)F)cc2)cc1C`, the inhibition entry in assay [1] and in assay [2] was “inactive” in each case.

`Cc1cn(Cc2ccccc2)c(=O)nc1NCc1ccccc1`: the inhibition entry in assay [1] and in assay [2] was “inactive” each time.

As to `CCCCCCCCNc1nc(=O)n(Cc2ccc(C(F)(F)F)cc2)cc1C`, the inhibition result in assay [1] and in assay [2] was “inactive” throughout.

For the compound `CC(=O)N[C@H](C(=O)N[C@@H](Cc1ccccc1)C(=O)N[C@@H](C)C(=O)N[C@@H](CCC(=O)O)C(N)=O)C(C)C` (Ac-VFAE-NH2), the inhibition entry in assay [1] and in assay [2] was “Dose-dependent effect” throughout. Further, the inhibition entry in assay [9], in assay [11], in assay [12], in assay [13] and in [10] was “Active” throughout. Besides, the result with Macrophage [5] and in the assay on Macrophage [6] was Active.

Take `Cc1cn(Cc2ccccc2)c(=O)nc1NC1CCCC1`: the inhibition entry in assay [1] and in [2] was “inactive” in each case.

On to `CC(=O)N[C@H](C(=O)N[C@@H](Cc1ccccc1)C(=O)N[C@@H](C)C(N)=O)C(C)C` (Ac-Val-Phe-Ala-NH2), for which the inhibition result in assay [1] and in assay [2] was “inactive” each time.

Take `CC(=O)N[C@@H](Cc1ccccc1)C(=O)N[C@@H](C)C(=O)N[C@@H](CCC(=O)O)C(N)=O` (Ac-Phe-Ala-Glu-NH2): the inhibition entry in assay [1] and in [2] was “inactive” throughout.

In the case of `CCC(C)Nc1nc(=O)n(Cc2ccccc2)cc1C` (stereo not drawn), the inhibition result in assay [1] and in assay [2] was “inactive” in each case.

As to `Cc1cn(Cc2ccccc2)c(=O)nc1NCCC(C)C`, the “fold change (FC)” value in assay [14] came out at 1.5; in assay [15], 1.4. Also, the inhibition result in [7] and in assay [8] was “Active” in each case.

In the case of `CC[C@H](C)[C@H](NC(C)=O)C(=O)N[C@H](C(=O)N[C@@H](Cc1ccccc1)C(=O)N[C@@H](C)C(N)=O)C(C)C` (Ac-IVFA-NH2), the inhibition (in general, the relative decrease from the control value, in per cent) in [1] is “Dose-dependent effect”; in assay [2] it was “Dose-dependent effect”; in assay [16], 77%; in assay [17], 70%. The inhibition result in [11], in [12] and in assay [13] was “Active” in each case. The result in the assay on Macrophage [5] and in the assay with Macrophage [6] was Active.

Take `CCOc1nc(=O)n(Cc2ccc3ccccc3c2)cc1C`: the inhibition entry in assay [1] and in assay [2] was “inactive” each time.

On to `CC[C@H](C)[C@H](NC(C)=O)C(=O)N[C@@H](Cc1ccccc1)C(=O)N[C@@H](C)C(N)=O` (Ac-Ile-Phe-Ala-NH2), for which the inhibition result in assay [1] and in assay [2] was “inactive” in each case.

On to `CCOc1nc(=O)n(Cc2ccccc2)cc1C`, for which the inhibition result in assay [1] and in assay [2] was “inactive” each time.
